Results taken from EP1779900A1, “Cosmetic or dermatological composition for prevention of light-induced aging” (Apotheker Walter Bouhon GmbH, priority 2005, dated 2007).

Test system: interstitiellen Kollagenase 1 (Matrixmetalloproteinase-1, MMP1)
Assay: Inhibition of UV-A-induced MMP1 mRNA expression in human dermal fibroblasts (real-time PCR, in vitro)
Type: cell-based
Settings: 20 J/cm^2 UV-A, versus control
Source text: Es wird die Hemmung der UV-A-induzierten Genexpression am Beispiel der interstitiellen Kollagenase 1 (Matrixmetalloproteinase-1, MMP1) in humanen dermalen Fibroblasten untersucht. Die UV-A-induzierte Expression von MMP1 mRNS wird mittels Echtzeit PCR (Polymerase-Kettenreaktion) aus Zellen, die 24 Stunden nach der Bestrahlung mit 20 J/cm^2 geerntet worden sind, im Vergleich zu unbehandelten zeitgleichen Kontrollen bestimmt.
Da Serum Vitamin-A enthält, werden die verwendeten Zellkulturen für 24 Stunden serum-depriviert. Zur Kontrolle wird die Genexpression an unbehandelten Zellen ohne und mit UV-A-Bestrahlung ermittelt. In einer Konzentrationsreihe von 0,1 bis 30 µM an zugesetztem Retinol wird jeweils die Genexpression der unbestrahlten und der mit UV-A bestrahlten Zellkulturen bestimmt.
Wiederum wird eine Kontrollmessung der Genexpression an unbehandelten Zellkulturen mit und ohne UV-A-Bestrahlung durchgeführt. Den Zellkulturen wird in einer Konzentrationsreihe zwischen 5 und 100µM Generol® R, ein käuflich erwerbbares Produkt der Cognis France SA zugefügt. Generol® R ist eine Mischung aus verschiedenen Phytosterolen und wird aus Raps gewonnen. Generol® R besteht zu 40 bis 60% aus Sitosterol, 25 bis 40% Campesterol, 7 bis 18% Brassicasterol und einem geringem Anteil an Stigmasterol. Zum Erreichen der beschriebenen Konzentrationsreihe wurde Generol® R entsprechend verdünnt. […]

CC1=C(/C=C/C(C)=C/C=C/C(C)=C/CO)C(C)(C)CCC1 [Vitamin-A, Retinol]
Hemmung der MMP1-Expression (Vitamin-A 10-25 µM (series 0,1-30 µM Retinol), serum-deprived 24 h, cells harvested 24 h after irradiation): ≤ 82%

Cc1c(C)c2c(c(C)c1OC(=O)CCC(=O)O)CCC(C)(CCCC(C)CCCC(C)CCCC(C)C)O2 (centres unmarked) [Vitamin-E-Sukzinat]
Hemmung der MMP1 mRNS-Expression (Vitamin-E-Sukzinat 10-75 µM, 24 h after irradiation): ≤ 75%
